From US8598339B2, “Withanolide isolated from Physalis longifolia and analogs and methods of use thereof” (University of Kansas, priority 2011, dated 2013)

Tests used:
Assay type in all cases: cell-based
SUP-B15 cells [1] = test: Trypan blue exclusion assay, SUP-B15; details: 5×, 2×, 1×, 0.5×IC50
Description: Cell proliferation was analyzed using MTS assay and Trypan Blue exclusion. Annexin V-FITC/Propidium Iodide flow cytometry was used to analyze the induction of apoptosis in SUP-B15 cells after treatment with anolides. Cell cycle analysis was performed using propidium iodide flow cytometry. Modulation of BCR-ABL and downstream effector proteins was determined by western blot analysis. […] between withanolides and TKIs was evaluated using MTS viability to calculate combination indices. Apoptotic synergy was evaluated using Annexin V/PI.

SUP-B15 cells [2] = test: Annexin V/propidium iodide apoptosis, SUP-B15; details: 48 hour; approximately 10×IC50 (Withaferin A, X001), 4×IC50 (X003)
Description: (§1) Cell proliferation was analyzed using MTS assay and Trypan Blue exclusion. Annexin V-FITC/Propidium Iodide flow cytometry was used to analyze the induction of apoptosis in SUP-B15 cells after treatment with anolides. Cell cycle analysis was performed using propidium iodide flow cytometry. Modulation of BCR-ABL and downstream effector proteins was determined by western blot analysis. Syngery between withanolides and TKIs was evaluated using MTS viability to calculate combination indices. Apoptotic synergy was evaluated using Annexin V/PI.
At no concentrations was the population of cells in necrosis significant.

[3] = system: DRO81-1 medullary thyroid cancer cells; test: MTS cell viability assay, DRO81-1; details: Table 1; DRO81-1; 72-hour treatment; read-out: IC50
Description: (§2) Human carcinoid cells, NCI-H727 (ATCC, Manassas, Va.), were cultured under standard conditions. Squamous cell carcinoma of head and neck cells, MDA1986 (Myers, et al. (2002) Clin. Cancer Res. 8:293) and JMAR (Swan, et al. (2003) Oral Oncol. 39:648-55); and melanoma cells lines B16F10 (ATCC, Manassas, Va.) and SKMEL28 (CLS, Eppelheim, Germany) were cultured in DMEM medium supplemented with 10% heat-inactivated fetal bovine serum (Sigma-Aldrich, St. Louis, Mo.), 1×MEM-essential amino acid, 1×MEM vitamin, and penicillin/streptomycin (Sigma-Aldrich, St. Louis, Mo.) in a humid environment of 5% CO2 at 37° C. Activity of withanolides against DRO81-1 and TT medullary thyroid cancer cells was also determined.
(§3) Cells were cultured in 96 well plates at a concentration of 1-2×10^4 cells/mL. Cell viability was assessed with the nonradioactive cell proliferation MTS assay using Cell Titer 96AQUEOUS One Solution Reagent (PROMEGA, Madison, Wis.), according to the manufacturer's instruction. After a 72-hour treatment, 20 μL of Cell Titer 96AQUEOUS One Solution Reagent were added to each well and incubated for 3 hours at 37° C. 5% CO2, and formazan absorbance was measured at 490 nm.

[4] = system: TT medullary thyroid cancer cells; test: MTS cell viability assay, TT; details: Table 1, 72-hour treatment
Description: as §2, §3

[5] = system: human melanoma SKMEL28 cells; test: MTS cell viability assay, SKMEL28; details: Homo sapiens; for IC50: SK-MEL-28, 72 h
Description: as §2, §3
A cell viability MTS assay was carried out to determine the anti-cancer effect of the withanolides on human melanoma SKMEL28 cells. Cells were treated for 72 hours and cell viability was determined according to the manufacturer's instruction.

SUP-B15 cells [6] = test: Cell cycle analysis by PI flow cytometry, SUP-B15; details: 48 hour treatment
Description: as §1

SUP-B15 Ph+ALL cells = test: Combination with imatinib, MTS viability, SUP-B15; details: 16 combinations
Description: as §1

SUP-B15 Ph+ ALL cells = test: MTS assay, SUP-B15
Description: as §1

normal MRC-5 fibroblasts = test: MTS assay, normal MRC-5 fibroblasts (Example 7); details: Homo sapiens, MRC5
Description: as §1

[7] = system: squamous cell carcinoma of head and neck cells JMAR; test: MTS cell viability assay, JMAR
Description: as §2, §3

MRC-5 = test: MTS cell viability assay, MRC-5; details: Homo sapiens, MRC5, Table 1, 72-hour treatment
melanoma cells B16F10 = test: MTS cell viability assay, B16F10; details: Mus musculus
Description: as §2, §3

[8] = system: human carcinoid cells NCI-H727; test: MTS cell viability assay, NCI-H727; details: Table 1, NCI-H727, 72-hour treatment, read-out: IC50
Description: as §2, §3

[9] = system: squamous cell carcinoma of head and neck cells MDA1986; test: MTS cell viability assay, MDA1986; details: Table 1, 72-hour treatment
Description: as §2, §3

CC1=C(CO)C(=O)O[C@@H]([C@@H](C)[C@H]2CC[C@H]3[C@@H]4C[C@H]5O[C@]56[C@@H](O)C=CC(=O)[C@]6(C)[C@H]4CC[C@]23C)C1 [Withaferin A, reference compound]
cell death at 24 hours, trypan blue exclusion (SUP-B15 cells [1]): did not cause significant cell death at 24 hours at any concentration tested | induction of apoptosis (SUP-B15 cells [2]): almost all cells were in either late or early apoptosis | IC50 [3]: 1090 nM | IC50 [4]: 1130 nM | IC50 ([5]; Table 1, 72-hour treatment): 3960 nM | IC50 ([5]; Table 3, treated for 72 hours, NA = no activity): 3150 nM | IC90 ([5]; SK-MEL-28, Table 2): 680 nM | Cell Cycle (%) G0/G1 (SUP-B15 cells [6]; 80 nM): 49.9% | Cell Cycle (%) G2/M (SUP-B15 cells [6]; 80 nM): 27.8% | Cell Cycle (%) S (SUP-B15 cells [6]; 80 nM): 22.2% | Cell Cycle (%) G0/G1 (SUP-B15 cells [6]; 160 nM): 50.2% | Cell Cycle (%) G2/M (SUP-B15 cells [6]; 160 nM): 28.4% | Cell Cycle (%) S (SUP-B15 cells [6]; 160 nM): 21.4% | Cell Cycle (%) G0/G1 (SUP-B15 cells [6]; 320 nM): 38.4% | Cell Cycle (%) G2/M (SUP-B15 cells [6]; 320 nM): 46.8% | Cell Cycle (%) S (SUP-B15 cells [6]; 320 nM): 14.8% | Cell Cycle (%) G0/G1 (SUP-B15 cells [6]; 640 nM): 23.7% | Cell Cycle (%) G2/M (SUP-B15 cells [6]; 640 nM): 71% | Cell Cycle (%) S (SUP-B15 cells [6]; 640 nM): 5.3% | Cell Cycle (%) G0/G1 (SUP-B15 cells [6]; 1280 nM): 47.1% | Cell Cycle (%) G2/M (SUP-B15 cells [6]; 1280 nM): 34.3% | Cell Cycle (%) S (SUP-B15 cells [6]; 1280 nM): 18.6% | combination index (CI) with imatinib (SUP-B15 Ph+ALL cells; 0.25×-1×IC50 of each drug): 1.3 | synergy with imatinib (SUP-B15 Ph+ALL cells): only showed synergy at three of the concentrations tested | IC50 (SUP-B15 Ph+ ALL cells; Homo sapiens, SUP-B15): 132 nM | Fold Difference (SUP-B15 Ph+ ALL cells; MRC-5 vs SUP-B15 IC50): 17X | IC50 (normal MRC-5 fibroblasts): 2200 nM | IC50 ([7]; Table 1, 72-hour treatment): 2000 nM | IC90 ([7]; Table 2): 3600 nM | IC50 (MRC-5): 200 nM | IC50 (melanoma cells B16F10; B16-F10, Table 1, 72-hour treatment): 260 nM | IC90 (melanoma cells B16F10; B16-F10, Table 2): 1230 nM | IC50 [8]: 3880 nM | IC50 [9]: 800 nM
